Source: patent publication US20130165343A1, “IDENTIFICATION OF MULTIGENE BIOMARKERS” (AVEO Pharmaceuticals, Inc., priority 2011, published 2013)

Tests used:
[1] = system: BH murine tumor archive (HER2-dependent murine breast tumors); test: Tumor response to rapamycin in subcutaneously transplanted BH archive murine breast tumors; type: in vivo, mouse; details: out of 66 tumors; 0.1 mg/kg daily, intraperitoneal injection
From the text: (§1) A genetically diverse population of more than 100 murine breast tumors (BH archive) was used to identify tumors that are sensitive to a drug of interest (responders) and tumors that are resistant to the same drug of interest (non-responders). The BH archive was established by in vivo propagation and cryopreservation of primary tumor material from more than 100 spontaneous murine breast tumors derived from engineered chimeric mice that develop HER2-dependent, inducible spontaneous breast tumors.
The BH archive of more than 100 tumors was produced essentially as follows. Primary tumor cells were isolated from the chimeric animals by physical disruption of the tumors using cell strainers. Typically 1×10^5 cells were mixed with Matrigel (50:50 by vol.) and injected subcutaneously into female NCr nu/nu mice. When these tumors grew to approximately 500 mm3, which typically required 2 to 4 weeks, they were collected for one further round of in vivo propagation, after which tumor material was cryopreserved in liquid nitrogen. […]
Tumors from the BH murine tumor archive were tested for sensitivity to treatment with rapamycin (also known as sirolimus, or RAPAMUNE®). […] Tumors were measured twice per week by a caliper, and tumor volume was calculated.

[2] = system: BH murine tumor archive (HER2-dependent murine breast tumors); test: Tumor response to tivozanib in subcutaneously transplanted BH archive murine breast tumors; type: in vivo, mouse
From the text: as §1
The BH archive of more than 100 tumors was produced essentially as follows. Primary tumor cells were isolated from the chimeric animals by physical disruption of the tumors using cell strainers. Typically 1×10^5 cells were mixed with Matrigel (50:50 by vol.) and injected subcutaneously into female NCr nu/nu mice. When these tumors grew to approximately 500 mm3, which typically required 2 to 4 weeks, they were collected for one further round of in vivo propagation, after which tumor material was cryopreserved in liquid nitrogen. To characterize the propagated and archived tumors, 1×10^5 cells from each individual tumor line were thawed and injected subcutaneously in BALB/c nude mice. When the tumors reached a mean size of 500 to 800 mm3, animals were sacrificed and tumors were surgically removed for further analysis.
Tumors in the BH murine tumor archive were tested for sensitivity to treatment with tivozanib. Evaluation of tumor response to this drug treatment was performed essentially as follows. Subcutaneously transplanted tumors were established by injecting physically disrupted tumor cells (mixed with Matrigel) into 6 week-old female BALB/c nude mice. When the tumors reached approximately 100-200 mm3, 20 tumor-bearing mice were randomized into two groups. Group 1 received vehicle. Group 2 received tivozanib at 5 mg/kg daily by oral gavage. Tumors were measured twice per week by a caliper, and tumor volume was calculated.
The variation in response was expected, because the mouse model tumors had been propagated from spontaneously arising tumors, and were therefore expected to contain differing sets of secondary de novo mutations that contributed to tumorogenesis. […] Tivozanib-sensitive tumors and tivozanib-resistant tumors were identified (classified) on the basis of tumor growth inhibition, histopathology and IHC (CD31).

[3] = out of 25 tumors, 5 mg/kg tivozanib, classified by tumor growth inhibition, histopathology and IHC (CD31)

| Compound | number of rapamycin-resistant tumors (50% tumor growth inhibition or less) [1] | number of rapamycin-sensitive tumors (more than 50% tumor growth inhibition) [1] | tumor progression (by caliper measurement) in tivozanib-sensitive tumors ([2]; 5 mg/kg daily by oral gavage, BALB/c nude mice, tivozanib-sensitive tumors) | tumor killing in tivozanib-sensitive tumors ([2]; 5 mg/kg, tivozanib-sensitive tumors, histopathology) | number of tumors actually resistant [2, 3] | number of tumors actually sensitive [2, 3] |
| --- | --- | --- | --- | --- | --- | --- |
| CO[C@H]1C[C@@H]2CC[C@@H](C)[C@@](O)(O2)C(=O)C(=O)N2CCCC[C@H]2C(=O)O[C@H]([C@H](C)C[C@@H]2CC[C@@H](O)[C@H](OC)C2)CC(=O)[C@H](C)/C=C(\C)[C@@H](O)[C@@H](OC)C(=O)[C@H](C)C[C@H](C)/C=C/C=C/C=C/1C [rapamycin] | 25 | 41 | – | – | – | – |
| COc1cc2nccc(Oc3ccc(NC(=O)Nc4cc(C)on4)c(Cl)c3)c2cc1OC [tivozanib] | – | – | no tumor progression | close to complete tumor killing, except for the peripheries | 16 | 9 |
